{"source": "patent US20130129686A1", "about": "“Reducing Inflammation Using Cell Therapy” (Regents of the University, priority 2009, published 2013)", "key": {"[1]": {"test_system": "allogeneic T cell proliferation", "assay": "Mixed leukocyte reaction (MLR), 3H-thymidine uptake", "type": "cell-based, mouse", "from_the_text": "Lymph nodes (LNs) were harvested from B6 mice and T-cells were purified using by negative selection using PE-conjugated anti-CD19, anti-CD11c, anti-NK1.1 and anti-PE magnetic beads (Miltenyi Biotech). Purity was routinely >95%. Spleens were harvested from BALB/c mice, T-cell depleted (anti-Thy1.1), and irradiated (3000 cGy). B6 T-cells were mixed at a 1:1 ratio with BALB/c splenic stimulators and plated in a 96 well round bottom plate (10^5 T-cells/well) or in the lower chamber of a 24 well plate TransWell insert (10^6 T-cells/well). MAPCs were irradiated (3000 cGy) and plated in a 96 well round bottom plate (10^4/well, 1:10) or in a 24 well TransWell plate (10^5/well, 1:10). Cells were incubated in “T-cell media” in 200 μl/well (96 well) or 800 μl/well (24 well) of RPMI 1640 (Invitrogen, Carlsbad, Calif.) supplemented with 10% FCS, […] 2-ME (Sigma-Aldrich), 10 mM HEPES buffer (Invitrogen), 1 mM sodium pyruvate (Invitrogen), amino acid supplements (1.5 mM L-glutamine, L-arginine, L-asparagine) (Sigma-Aldrich), 100 U/ml penicillin, […] streptomycin (Sigma-Aldrich). Cells were pulsed with ^3H-thymidine (1 μCi/well) 16-18 hours prior to harvesting and counted in the absence of scintillation fluid on a β-plate reader. […] Trypan blue exclusion was used to assess effects on live cells. […]"}, "PGE2": {"test_system": "PGE2", "assay": "PGE2 quantification in MAPC culture supernatant (PGE2 assay kit)", "type": "cell-based, mouse", "conditions": "overnight treatment of MAPCs, 5 μM, for the period of the MLR culture (9 days)", "from_the_text": "Lymph nodes (LNs) were harvested from B6 mice and T-cells were purified using by negative selection using PE-conjugated anti-CD19, anti-CD11c, anti-NK1.1 and anti-PE magnetic beads (Miltenyi Biotech). Purity was routinely >95%. Spleens were harvested from BALB/c mice, T-cell depleted (anti-Thy1.1), and irradiated (3000 cGy). B6 T-cells were mixed at a 1:1 ratio with BALB/c splenic stimulators and plated in a 96 well round bottom plate (10^5 T-cells/well) or in the lower chamber of a 24 well plate TransWell insert (10^6 T-cells/well). MAPCs were irradiated (3000 cGy) and plated in a 96 well round bottom plate (10^4/well, 1:10) or in a 24 well TransWell plate (10^5/well, 1:10). […] Cells were pulsed with ^3H-thymidine (1 μCi/well) 16-18 hours prior to harvesting and counted in the absence of scintillation fluid on a β-plate reader. […]\nQuantitative determination of PGE2 in cell culture supernatants was performed using PGE2 assay kit (R&D Systems) by following manufacturer's instructions. Quantities of IL-10, TGF-β, IL-2, TNF-α, IFN-γ, and IL-12 were determined using Luminex technology (R&D Systems). […] The color development is stopped, and the absorbance is read at 450 nm. […]"}, "[2]": {"conditions": "cited from earlier work"}}, "note": "Entries after “also recorded” stand apart in the source; their conditions may differ."}
{"smiles": "Cn1cc(C[C@@H](N)C(=O)O)c2ccccc21", "note": "[1MT, 1-methyl-D-tryptophan]", "values": [{"measurement": "additive effect with indomethacin pre-treatment of MAPCs", "setting": "[1]; 200 μM 1MT in co-culture plus MAPCs pre-treated with 5 μM indomethacin", "result": "little/no additive effect"}, {"measurement": "T-cell proliferation in MLR-MAPC co-cultures with IDO inhibitor", "setting": "[1]; 200 μM in culture media", "result": "did not increase T-cell proliferation; also recorded: did not affect T-cell proliferation"}]}
{"smiles": "COc1ccc2c(c1)c(CC(=O)O)c(C)n2C(=O)c1ccc(Cl)cc1", "note": "[indomethacin]", "values": [{"measurement": "upstream synthesis of PGE2 by MAPCs", "setting": "PGE2", "result": "potently inhibited"}]}
{"smiles": "CCCCC[C@H](O)/C=C/[C@H]1[C@H](O)CC(=O)[C@@H]1C/C=C\\CCCC(=O)O", "note": "[PGE2, prostaglandin E2]", "values": [{"measurement": "half-life in vivo", "setting": "[2]", "result": "~30", "unit": "s"}]}
